Data taken from patent US20200181153A1, “IMIDAZOPYRIDAZINONE COMPOUNDS AND USES THEREOF” (Aduro Biotech, Inc., priority 2018, published 2020).

Tests used:
[1] = target: T1, Human cGAS (Homo sapiens, UniProt Q8N884); assay: cGAS biochemical activity assay (ATP levels by Kinase-Glo Max luminescence); details: human cGAS amino acids 155-522, 25 nM, activated by 1 μM double stranded DNA, 37° C. for 1.25 hours
T1 construct: hexahistidine tag (N, cleaved yes); made in house; host or cells: E. coli BL21 DE3 Rosetta 2
Method: Human cGAS sequence encoding amino acids 155-522 was cloned into a pET (EMD Millipore) based expression plasmid. The resulting construct contained a tandem N-terminal hexahistidine tag, maltose binding protein fusion followed by a tobacco etch virus protease cleavable linker preceding cGAS amino acids 155-522.
Protein was expressed and purified from E. coli BL21 DE3 Rosetta 2 (EMD Millipore) cells using standard techniques. Cells were grown in 2× yeast extract tryptone medium and expression was initiated via the addition of isopropyl β-D-1-thiogalactopyranoside. Expression proceeded overnight at 18° C. Cells were harvested by centrifugation and subsequently […] via sonication. Insoluble fraction was removed by centrifugation. Maltose binding protein (MBP) fusion proteins were purified on a dextrin sepharose column (GE Healthcare) and the MBP tag was removed using tobacco etch virus protease overnight during dialysis. Protein was further purified on a heparin column (GE Healthcare) and eluted using a NaCl gradient. Column fraction were pooled and further purified on a Superdex 75 gel filtration column (GE Healthcare). Protein was quantified using 280 nm absorbance. Protein was then flash frozen in liquid nitrogen and stored at −80° C., until use.
Potential antagonists were diluted in 100% dimethyl sulfoxide and added to the reaction. Final dimethyl sulfoxide concentration was 5%. The compounds were tested from 250 μM with 5-fold serial dilutions down to 0.000128 μM.
Two complementary DNA oligos (IDT DNA) were annealed by slow cooling from 95° C. The resulting double stranded DNA was used to activate cGAS.
Reactions were performed at 37° C., for 1.25 hours. Reaction buffer: 20 mM Tris HCl pH 9, 100 mM NaCl, 5 mM MgCl2, 0.1 mg/ml bovine gamma globulin, 1 mM adenosine triphosphate, 250 μM guanosine triphosphate, 0.5 mM Tris(2-carboxyethyl)phosphine hydrochloride, 1 μM double stranded DNA and 25 nM purified cGAS protein.
Reactions were stopped and ATP levels in the reaction were measured using a luciferase based assay. Promega Kinase-Glo Max Assay. Luminescence was measured on a plate reader (Molecular Devices). Values were normalized to control wells lacking compound.

[2] = system: cGAS/STING pathway; assay: THP1 cell-based cGAS/STING pathway activity assay (luciferase reporter linked to IRF-3 activation); details: Homo sapiens, THP-1
Source text: (§1) A cellular assay can be used to assess the compounds of the invention for their ability to inhibit the cGAS/STING pathway. Cells that express a luciferase-based reporter that is linked to IRF-3 activation are used to determine response as a function of compound concentration. Such an assay is described in Vincent et al., Nature Communications 2017, 8(1):750, doi: 10.1038/s41467-017-00833-9.
as §1, with “10.1038/s41467-017-00833-9. Compounds of the invention were assessed using similar assay methods in a THP1 cell assay to generate IC50 values.” for “10.1038/s41467-017-00833-9.”

T1 sequence (Q8N884 157-522): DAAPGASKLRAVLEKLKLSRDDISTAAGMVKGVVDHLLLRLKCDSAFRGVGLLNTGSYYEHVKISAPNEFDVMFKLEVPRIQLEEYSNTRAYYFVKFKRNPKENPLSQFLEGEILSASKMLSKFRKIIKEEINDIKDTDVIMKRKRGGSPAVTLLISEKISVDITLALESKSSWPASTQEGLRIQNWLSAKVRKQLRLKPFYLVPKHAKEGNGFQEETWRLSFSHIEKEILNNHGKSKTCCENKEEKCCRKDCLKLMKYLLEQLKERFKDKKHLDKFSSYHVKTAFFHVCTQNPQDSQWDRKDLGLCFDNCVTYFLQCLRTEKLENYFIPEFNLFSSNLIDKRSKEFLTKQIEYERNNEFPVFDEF

IC50 [1] [nM] | IC50 [2] [nM] | SMILES
< 1000 |  | Cc1cc(=O)c2nc(C#N)c(-c3ccccc3)n2[nH]1 [Compound 3, 6-methyl-8-oxo-3-phenyl-5,8-dihydroimidazo[1,2-b]pyridazine-2-carbonitrile]
< 1000 | < 10000 | COc1cccc(-c2c(C)[nH]n3c(-c4ccccc4)c(C#N)nc3c2=O)c1 [Compound 5, 7-(3-methoxyphenyl)-6-methyl-8-oxo-3-phenyl-5,8-dihydroimidazo[1,2-b]pyridazine-2-carbonitrile]
< 1000 | < 10000 | Cc1[nH]n2c(-c3ccccc3)c(C#N)nc2c(=O)c1-c1cccc(Cl)c1 [Compound 6, 7-(3-chlorophenyl)-6-methyl-8-oxo-3-phenyl-5,8-dihydroimidazo[1,2-b]pyridazine-2-carbonitrile]
< 1000 | < 10000 | CCc1ccc(-c2c(C)[nH]n3c(-c4ccccc4)c(C#N)nc3c2=O)cc1 [Compound 13, 7-(4-ethylphenyl)-6-methyl-8-oxo-3-phenyl-5,8-dihydroimidazo[1,2-b]pyridazine-2-carbonitrile]
